In brackets after ≈: the same amount, converted by molar mass.
What was measured:
Type in all cases: cell-based
[1] = system: M. hyorinis BTS-7; assay: Mycoplasma susceptibility testing (MIC)
Procedure: (§1) The MIC's in Table I and Table II were determined by standard agar-dilution assays or broth-dilution microtiter test.

[2] = system: M. gallisepticum S6; assay: Mycoplasma susceptibility testing (MIC); conditions: Mycoplasmoides gallisepticum
Procedure: as §1

[3] = system: M. gallisepticum BG44T; assay: Mycoplasma susceptibility testing (MIC); conditions: Mycoplasmoides gallisepticum
Procedure: as §1

[4] = system: Streptococcus pneumoniae 2349; assay: Antibacterial MIC, agar-dilution or broth-dilution microtiter test; conditions: Strain L: Streptococcus pneumoniae 2349
Procedure: as §1

[5] = system: Streptococcus pneumoniae 49619 (QC strain); assay: as above; conditions: Strain M: Streptococcus pneumoniae 49619 (QC strain)
Procedure: as §1

[6] = system: Pasteurella 8229; assay: as above; conditions: Strain D: Pasteurella 8229
Procedure: as §1

[7] = system: Staphylococcus aureus 29213 (QC strain); assay: as above; conditions: Strain H: Staphylococcus aureus 29213 (QC strain)
Procedure: as §1

[8] = system: Staphylococcus aureus 5-1; assay: as above; conditions: 51; Strain G: Staphylococcus aureus 5-1
Procedure: as §1

[9] = system: salmonella LD4-8; assay: as above; conditions: LD48; Strain I: salmonella LD4-8
Procedure: as §1

[10] = system: Actinobacillus pleuropneumoniae serotype 7; assay: as above; conditions: Strain B: Actinobacillus pleuropneumoniae serotype 7
Procedure: as §1

[11] = system: Klebsiella pneumoniae 3753; assay: as above; conditions: Strain J: Klebsiella pneumoniae 3753
Procedure: as §1

[12] = system: Escherichia coli 25922 (QC strain); assay: as above; conditions: Strain F: Escherichia coli 25922 (QC strain)
Procedure: as §1

[13] = system: Pasteurella 8217; assay: as above; conditions: Strain C: Pasteurella 8217
Procedure: as §1

[14] = system: Actinobacillus pleuropneumoniae serotype 1; assay: as above; conditions: Strain A: Actinobacillus pleuropneumoniae serotype 1
Procedure: as §1

[15] = system: Klebsiella pneumoniae 3699; assay: as above; conditions: Strain K: Klebsiella pneumoniae 3699
Procedure: as §1

[16] = system: Escherichia coli IN-F6-7; assay: as above; conditions: INF67; Strain E: Escherichia coli IN-F6-7
Procedure: as §1

CCCCNC[C@H]1/C=C(C)/C=C/C(=O)[C@H](C)C[C@H](CCN2CCCCC2)[C@H](O[C@@H]2O[C@H](C)[C@@H](O)[C@H](N(C)C)[C@H]2O)[C@@H](C)[C@H](O)CC(=O)O[C@@H]1CC [Compound 4c, (4R,5S,6S,7R,9R,11E,13E,15R,16R)-15-((butylamino)methyl)-6-(((2R,3R,4S,5S,6R)-4-(dimethylamino)-3,5-dihydroxy-6-methyltetrahydro-2H-pyran-2-yl)oxy)-16-ethyl-4-hydroxy-5,9,13-trimethyl-7-(2-(piperidin-1-yl)ethyl)oxacyclohexadeca-11,13-diene-2,10-dione]
MIC [1]: 31.2 µg/mL (≈ 43.3 µM) | MIC [2]: 15.6 µg/mL (≈ 21.6 µM) | MIC [3]: 7.82 µg/mL (≈ 10.8 µM) | MIC [4]: 2 µg/mL (≈ 2.77 µM) | MIC [5]: 256 µg/mL (≈ 355 µM) | MIC [6]: 4 µg/mL (≈ 5.54 µM) | MIC [7]: 64 µg/mL (≈ 88.6 µM) | MIC [8]: > 256 µg/mL | MIC [9]: 32 µg/mL (≈ 44.3 µM) | MIC [10]: 128 µg/mL (≈ 177 µM) | MIC [11]: 128 µg/mL (≈ 177 µM) | MIC [12]: 16 µg/mL (≈ 22.2 µM) | MIC [13]: 4 µg/mL (≈ 5.54 µM) | MIC [14]: 64 µg/mL (≈ 88.6 µM) | MIC [15]: > 256 µg/mL | MIC [16]: 16 µg/mL (≈ 22.2 µM)

CC[C@H]1OC(=O)C[C@@H](O)[C@H](C)[C@@H](O[C@@H]2O[C@H](C)[C@@H](O)[C@H](N(C)C)[C@H]2O)[C@@H](CCN2CCCCC2)C[C@@H](C)C(=O)/C=C/C(C)=C/[C@@H]1CN(C)Cc1ccccc1 [Compound 4f, (4R,5S,6S,7R,9R,11E,13E,15R,16R)-15-((benzyl(methyl)amino)methyl)-6-(((2R,3R,4S,5S,6R)-4-(dimethylamino)-3,5-dihydroxy-6-methyltetrahydro-2H-pyran-2-yl)oxy)-16-ethyl-4-hydroxy-5,9,13-trimethyl-7-(2-(piperidin-1-yl)ethyl)oxacyclohexadeca-11,13-diene-2,10-dione]
MIC [1]: 0.98 µg/mL (≈ 1.27 µM) | MIC [2]: 0.24 µg/mL (≈ 0.312 µM) | MIC [3]: < 0.12 µg/mL | MIC [4]: < 0.12 µg/mL | MIC [5]: 0.5 µg/mL (≈ 0.649 µM) | MIC [6]: 0.12 µg/mL (≈ 0.156 µM) | MIC [7]: 2 µg/mL (≈ 2.6 µM) | MIC [8]: 128 µg/mL (≈ 166 µM) | MIC [9]: 4 µg/mL (≈ 5.19 µM) | MIC [10]: 64 µg/mL (≈ 83.1 µM) | MIC [11]: 32 µg/mL (≈ 41.6 µM) | MIC [12]: 4 µg/mL (≈ 5.19 µM) | MIC [13]: < 0.12 µg/mL | MIC [14]: 16 µg/mL (≈ 20.8 µM) | MIC [15]: > 256 µg/mL | MIC [16]: 4 µg/mL (≈ 5.19 µM)

CC[C@H]1OC(=O)C[C@@H](O)[C@H](C)[C@@H](O[C@@H]2O[C@H](C)[C@@H](O)[C@H](N(C)C)[C@H]2O)[C@@H](CCN2C[C@H](C)C[C@H](C)C2)C[C@@H](C)C(=O)/C=C/C(C)=C/[C@@H]1CO[C@@H]1O[C@H](C)[C@@H](O)[C@@H](OC)[C@H]1OC [Tilmicosin, reference compound]
MIC [1]: 3.91 µg/mL (≈ 4.5 µM) | MIC [2]: < 0.12 µg/mL | MIC [3]: < 0.12 µg/mL | MIC [4]: 0.5 µg/mL (≈ 0.575 µM) | MIC [5]: 8 µg/mL (≈ 9.2 µM) | MIC [6]: 0.5 µg/mL (≈ 0.575 µM) | MIC [7]: 0.5 µg/mL (≈ 0.575 µM) | MIC [8]: > 256 µg/mL | MIC [9]: 32 µg/mL (≈ 36.8 µM) | MIC [10]: 32 µg/mL (≈ 36.8 µM) | MIC [11]: 64 µg/mL (≈ 73.6 µM) | MIC [12]: 8 µg/mL (≈ 9.2 µM) | MIC [13]: 8 µg/mL (≈ 9.2 µM) | MIC [14]: 32 µg/mL (≈ 36.8 µM) | MIC [15]: > 256 µg/mL | MIC [16]: 16 µg/mL (≈ 18.4 µM)

CC[C@H]1OC(=O)C[C@@H](O)[C@H](C)[C@@H](O[C@@H]2O[C@H](C)[C@@H](O[C@H]3C[C@@](C)(O)[C@@H](O)[C@H](C)O3)[C@H](N(C)C)[C@H]2O)[C@@H](CC=O)C[C@@H](C)C(=O)/C=C/C(C)=C/[C@@H]1CO[C@@H]1O[C@H](C)[C@@H](O)[C@@H](OC)[C@H]1OC [Tylosin, reference compound]
MIC [1]: 1.95 µg/mL (≈ 2.13 µM) | MIC [2]: < 0.12 µg/mL | MIC [3]: < 0.12 µg/mL | MIC [4]: < 0.12 µg/mL | MIC [5]: 2 µg/mL (≈ 2.18 µM) | MIC [6]: 32 µg/mL (≈ 34.9 µM) | MIC [7]: 2 µg/mL (≈ 2.18 µM) | MIC [8]: > 256 µg/mL | MIC [9]: > 256 µg/mL | MIC [10]: 8 µg/mL (≈ 8.73 µM) | MIC [11]: > 256 µg/mL | MIC [12]: 256 µg/mL (≈ 279 µM) | MIC [13]: 32 µg/mL (≈ 34.9 µM) | MIC [14]: 16 µg/mL (≈ 17.5 µM) | MIC [15]: > 256 µg/mL | MIC [16]: 256 µg/mL (≈ 279 µM)

CC[C@H]1OC(=O)C[C@@H](O)[C@H](C)[C@@H](O[C@@H]2O[C@H](C)[C@@H](O)[C@H](N(C)C)[C@H]2O)[C@@H](CCN2CCCCC2)C[C@@H](C)C(=O)/C=C/C(C)=C/[C@@H]1CN1CCCCC1 [Zuprevo, reference compound]
MIC [1]: 1.95 µg/mL (≈ 2.66 µM) | MIC [2]: < 0.12 µg/mL | MIC [3]: < 0.12 µg/mL | MIC [4]: 0.5 µg/mL (≈ 0.681 µM) | MIC [5]: 256 µg/mL (≈ 349 µM) | MIC [6]: 1 µg/mL (≈ 1.36 µM) | MIC [7]: 256 µg/mL (≈ 349 µM) | MIC [8]: > 256 µg/mL | MIC [9]: 8 µg/mL (≈ 10.9 µM) | MIC [10]: 64 µg/mL (≈ 87.2 µM) | MIC [11]: 32 µg/mL (≈ 43.6 µM) | MIC [12]: 4 µg/mL (≈ 5.45 µM) | MIC [13]: 1 µg/mL (≈ 1.36 µM) | MIC [14]: 64 µg/mL (≈ 87.2 µM) | MIC [15]: > 256 µg/mL | MIC [16]: 4 µg/mL (≈ 5.45 µM)

Source: patent publication US10287275B2, “16-member triamilide derivatives and uses thereof” (VICTOR PHARMA CO., LTD. ZHENJIANG, priority 2015, dated 2019)
